Experimental data reported in patent publication US7125990B2, “Imidazolyl derivatives as corticotropin releasing factor inhibitors” (Bristol-Myers Squibb COmpany, priority 2001, dated 2006).

The compounds below were run against T1, CRF1 receptors (Homo sapiens, UniProt P34998) (assay: CRF1 receptor radioligand binding assay ([125I]-oCRF competition, IMR-32 cell membranes)). Details: IMR-32 cell membranes, [125I]-oCRF 100 pM; read-out: Ki (CRF-1R).
T1 construct: endogenous in cells; host or cells: IMR-32 cells, transformed with 2.5 µM 5'-bromo-2'-deoxyuridine for 10 days; membrane preparation
T1 sequence (P34998 24-415): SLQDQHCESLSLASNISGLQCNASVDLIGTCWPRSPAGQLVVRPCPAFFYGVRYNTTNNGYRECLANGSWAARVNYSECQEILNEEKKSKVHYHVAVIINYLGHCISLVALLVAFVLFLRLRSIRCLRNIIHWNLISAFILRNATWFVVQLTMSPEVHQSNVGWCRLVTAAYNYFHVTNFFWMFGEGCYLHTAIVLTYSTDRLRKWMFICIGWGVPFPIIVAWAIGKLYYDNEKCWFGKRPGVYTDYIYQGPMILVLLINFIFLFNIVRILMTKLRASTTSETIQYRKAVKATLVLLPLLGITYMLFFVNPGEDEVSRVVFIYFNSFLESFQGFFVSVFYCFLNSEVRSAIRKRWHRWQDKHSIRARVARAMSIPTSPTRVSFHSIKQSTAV
How it was run: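 Buffer: Tris pH 7.2 with MgCl2, BSA, Triton X-100, aprotinin, leupeptin; reaction stopped with ice-cold wash and filtered. Nonspecific binding set with 10 μM oCRF.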
With `Cc1cc(C)c(N2CCCn3c2nc(C(F)(F)F)c3CN2CC=CCC2)c(C)c1` [Example 60, 3-(3,6-Dihydro-2H-pyridin-1-ylmethyl)-2-trifluoromethyl-8-(2,4,6-trimethyl-phenyl)-5,6,7,8-tetrahydro-imidazo[1,2-a]pyrimidine] the Ki was < 1000 nM.
In the case of `CCCCN(C)Cc1c(C(F)(F)F)nc2n1CCCN2c1c(C)cc(C)cc1C` [Example 69, Butyl-methyl-[2-trifluoromethyl-8-(2,4,6-trimethyl-phenyl)-5,6,7,8-tetrahydro-imidazo[1,2-a]pyrimidin-3-ylmethyl]-amine], the Ki is reported as < 1000 nM.
In the case of `Cc1cc(C)c(N2CCCn3c2nc(C(F)(F)F)c3CN2CCCCC2C)c(Cl)c1` (stereo not drawn) [Example 100, 8-(2-Chloro-4,6-dimethyl-phenyl)-3-(2-methyl-piperidin-1-ylmethyl)-2-trifluoromethyl-5,6,7,8-tetrahydro-imidazo[1,2-a]pyrimidine], the Ki is reported as < 1000 nM.
For `CCCCN(C)Cc1c(C(F)(F)F)nc2n1CCCN2c1c(C)cc(C)cc1Cl` [Example 104, Butyl-[8-(2-chloro-4,6-dimethyl-phenyl)-2-trifluoromethyl-5,6,7,8-tetrahydro-imidazo[1,2-a]pyrimidin-3-ylmethyl]-methyl-amine], the Ki was < 1000 nM.
`CCCN(CCC)C(=O)c1c(CC)nc2n1CCN2c1c(C)cc(C)cc1C` [Example 11, 2-Ethyl-7-(2,4,6-trimethyl-phenyl)-6,7-dihydro-5H-imidazo[1,2-a]imidazole-3-carboxylic acid dipropyl-amide] was tested, and the Ki was < 1000 nM.
For `CCc1nc2n(c1C(=O)N(CC1CC1)CC(F)(F)F)CCN2c1c(C)cc(C)cc1Br` [Example 44, 7-(2-Bromo-4,6-dimethyl-phenyl)-2-ethyl-6,7-dihydro-5H-imidazo[1,2-a]imidazole-3-carboxylic acid cyclopropylmethyl-(2,2,2-trifluoro-ethyl)-amide], the Ki was < 100 nM.
In the case of `Cc1cc(C)c(-n2c3ncccc3n3c(CN(CCc4ccccc4)CC(F)(F)F)c(C(F)(F)F)nc23)c(C)c1` [Example 234, Phenethyl-(2,2,2-trifluoro-ethyl)-[2-trifluoromethyl-8-(2,4,6-trimethyl-phenyl)-8H-1,3a,7,8-tetraaza-cyclopenta[α]inden-3-ylmethyl]-amine], the Ki is reported as < 10000 nM.
In the case of `CCc1nc2n(c1C(=O)N(CC)CC1CCC1)CCN2c1c(C)cc(C)cc1Br` [Example 43, 7-(2-Bromo-4,6-dimethyl-phenyl)-2-ethyl-6,7-dihydro-5H-imidazo[1,2-a]imidazole-3-carboxylic acid cyclobutylmethyl-ethyl-amide], the Ki is reported as < 1000 nM.
`CCCN(Cc1c(CC)nc2n(-c3c(C)cc(C)cc3C)c3ncccc3n12)CC1CC1` [Example 247, Cyclopropylmethyl-[2-ethyl-8-(2,4,6-trimethyl-phenyl)-8H-1,3a,7,8-tetraaza-cyclopenta[α]inden-3-ylmethyl]-propyl-amine] was tested, and the Ki was < 100 nM.
`CCCC(O)(CCC)c1c(CC)nc2n1CCN2c1c(C)cc(C)cc1C` [Example 47, 4-[2-Ethyl-7-(2,4,6-trimethyl-phenyl)-6,7-dihydro-5H-imidazo[1,2-a]imidazol-3-yl]-heptan-4-ol] was tested, and the Ki was < 1000 nM.
With `CCN(CCc1ccccc1)Cc1c(C(F)(F)F)nc2n1CCCN2c1c(C)cc(C)cc1C` [Example 84, Ethyl-phenethyl-[2-trifluoromethyl-8-(2,4,6-trimethyl-phenyl)-5,6,7,8-tetrahydro-imidazo[1,2-a]pyrimidin-3-ylmethyl]-amine] the Ki was < 1000 nM.
In the case of `Cc1cc(C)c(-n2c3ccccc3n3c(CN(CCC4CC4)CCC(F)(F)F)c(C(F)(F)F)nc23)c(C)c1` [Example 166, (2-Cyclopropyl-ethyl)-[2-trifluoromethyl-8-(2,4,6-trimethyl-phenyl)-8H-1,3a,8-triaza-cyclopenta[α]inden-3-ylmethyl]-(3,3,3-trifluoro-propyl)-amine], the Ki is reported as < 1000 nM.
With `Cc1cc(C)c(-n2c3ccccc3n3c(CN(CC4CC4)CC(F)(F)F)c(C(F)(F)F)nc23)c(C)c1` [Example 150] the Ki was < 100 nM.
`CCCCN(CC)C(=O)c1c(CC)nc2n1CCN2c1c(C)cc(C)cc1C` [Example 15, 2-Ethyl-7-(2,4,6-trimethyl-phenyl)-6,7-dihydro-5H-imidazo[1,2-a]imidazole-3-carboxylic acid butyl-ethyl-amide] was tested, and the Ki was < 1000 nM.
`CCCN(CC1CC1)C(=O)c1c(C(F)(F)F)nc2n1CCCN2c1c(C)cc(C)cc1C` [Example 55, 2-Trifluoromethyl-8-(2,4,6-trimethyl-phenyl)-5,6,7,8-tetrahydro-imidazo[1,2a]pyrimidine-3-carboxylic acid cyclopropylmethyl-propyl-amide] was tested, and the Ki was < 10000 nM.
In the case of `CCCN(CCc1ccccc1)Cc1c(C(F)(F)F)nc2n(-c3c(C)cc(C)cc3C)c3ccccc3n12` [Example 161, Phenethyl-propyl-[2-trifluoromethyl-8-(2,4,6-trimethyl-phenyl)-8H-1,3a,8-triaza-cyclopenta[α]inden-3-ylmethyl]-amine], the Ki is reported as < 1000 nM.
In the case of `CCc1nc2n(-c3c(C)cc(C)cc3C)c3ncccc3n2c1CN(CC1CC1)CC1CC1` [Example 246, Bis-cyclopropylmethyl-[2-ethyl-8-(2,4,6-trimethyl-phenyl)-8H-1,3a,7,8-tetraaza-cyclopenta[α]inden-3-ylmethyl]-amine], the Ki is reported as < 100 nM.
For `CCCN(Cc1c(C(F)(F)F)nc2n1CCCN2c1c(C)cc(C)cc1C)CC1CC1` [Example 59, Cyclopropylmethyl-propyl-[2-trifluoromethyl-8-(2,4,6-trimethyl-phenyl)-5,6,7,8-tetrahydro-imidazo[1,2-a]pyrimidin-3-ylmethyl]-amine], the Ki was < 100 nM.
For `Cc1cc(C)c(N2CCCn3c2nc(C(F)(F)F)c3CN2CCCCC2C)c(C)c1` (stereo not drawn) [Example 63, 3-(2-Methyl-piperidin-1-ylmethyl)-2-trifluoromethyl-8-(2,4,6-trimethyl-phenyl)-5,6,7,8-tetrahydro-imidazo[1,2-a]pyrimidine], the Ki was < 1000 nM.
In the case of `FC(F)(F)CCN(Cc1c(C(F)(F)F)nc2n(-c3ccc(Cl)cc3Cl)c3ccccc3n12)CC1CC1` [Example 180, Cyclopropylmethyl-[8-(2,4-dichloro-phenyl)-2-trifluoromethyl-8H-1,3a,8-triaza-cyclopenta[α]inden-3-ylmethyl]-(3,3,3-trifluoro-propyl)-amine], the Ki is reported as < 10000 nM.
For `CCCCN(C)Cc1c(C(F)(F)F)nc2n(-c3c(C)cc(C)cc3C)c(Cl)cn12` [Example 310, Butyl-[6-chloro-2-trifluoromethyl-7-(2,4,6-trimethyl-phenyl)-7H-imidazo[1,2-a]imidazol-3-ylmethyl]-methyl-amine], the Ki was < 1000 nM.
In the case of `CCCN(CC1CC1)C(=O)c1c(C)nc2n1CC(=O)N2c1c(C)cc(C)cc1C` [Example 301, 2-Methyl-6-oxo-7-(2,4,6-trimethyl-phenyl)-6,7-dihydro-5H-imidazo[1,2-a]imidazole-3-carboxylic acid cyclopropylmethyl-propyl-amide], the Ki is reported as < 1000 nM.
In the case of `C=CCN(CC=C)Cc1c(C(F)(F)F)nc2n(-c3c(C)cc(C)cc3C)c(Cl)cn12` [Example 345, Diallyl-[6-chloro-2-trifluoromethyl-7-(2,4,6-trimethyl-phenyl)-7H-imidazo[1,2-a]imidazol-3-ylmethyl]-amine], the Ki is reported as < 10 nM.
In the case of `CCN(Cc1c(C(F)(F)F)nc2n(-c3c(C)cc(C)cc3C)c3ccccc3n12)CC1CC1` [Example 154, Cyclopropylmethyl-ethyl-[2-trifluoromethyl-8-(2,4,6-trimethyl-phenyl)-8H-1,3a,8-triaza-cyclopenta[α]inden-3-ylmethyl]-amine], the Ki is reported as < 100 nM.
`CCN(Cc1ccccc1)Cc1c(C(F)(F)F)nc2n(-c3c(C)cc(C)cc3C)c3ncccc3n12` [Example 233, Benzyl-ethyl-[2-trifluoromethyl-8-(2,4,6-trimethyl-phenyl)-8H-1,3a,7,8-tetraaza-cyclopenta[α]inden-3-ylmethyl]-amine] was tested, and the Ki was < 10000 nM.
In the case of `Cc1cc(C)c(-n2c3ccccc3n3c(CN(CCC4CC4)CC(F)(F)F)c(C(F)(F)F)nc23)c(C)c1` [Example 169, (2-Cyclopropyl-ethyl)-(2,2,2-trifluoro-ethyl)-[2-trifluoromethyl-8-(2,4,6-trimethyl-phenyl)-8H-1,3a,8-triaza-cyclopenta[α]inden-3-ylmethyl]-amine], the Ki is reported as < 1000 nM.
With `Cc1cc(C)c(-n2c(Cl)cn3c(CN(C)CCc4ccccc4)c(C(F)(F)F)nc23)c(C)c1` [Example 308, [6-Chloro-2-trifluoromethyl-7-(2,4,6-trimethyl-phenyl)-7H-imidazo[1,2-a]imidazol-3-ylmethyl]-methyl-phenethyl-amine] the Ki was < 1000 nM.
With `CCCN(Cc1ccc(F)cc1)Cc1c(C(F)(F)F)nc2n1CCCN2c1c(C)cc(C)cc1Cl` [Example 132, [8-(2-Chloro-4,6-dimethyl-phenyl)-2-trifluoromethyl-5,6,7,8-tetrahydro-imidazo[1,2-a]pyrimidin-3-ylmethyl]-(4-fluoro-benzyl)-propyl-amine] the Ki was < 1000 nM.
For `CCCN(CC1CC1)C(=O)c1c(CC)nc2n1CCN2c1ccc(C(C)C)cc1Br` [Example 35, 7-(2-Bromo-4-isopropyl-phenyl)-2-ethyl-6,7-dihydro-5H-imidazo[1,2-a]imidazole-3-carboxylic acid cyclopropylmethyl-propyl-amide], the Ki was < 10000 nM.
`CCCN(CC1CCC1)C(=O)c1c(CC)nc2n1CCN2c1c(C)cc(C)cc1Br` [Example 42, 7-(2-Bromo-4,6-dimethyl-phenyl)-2-ethyl-6,7-dihydro-5H imidazo[1,2-a]imidazole-3-carboxylic acid cyclobutylmethyl-propyl-amide] was tested, and the Ki was < 1000 nM.
